Experimental data reported in ChEMBL document CHEMBL1208723, “Synthesis and activity of polyacetylene substituted 2-hydroxy acids, esters, and amides against microbes of clinical importance” (Bioorg Med Chem Lett, 2010).

Tests used:
[1] = test system: Candida tropicalis; assay: Antifungal activity against Candida tropicalis; assay type: functional, organism-based
[2] = test system: Pseudomonas aeruginosa; assay: Antibacterial activity against Pseudomonas aeruginosa ATCC 27853; assay type: functional; further: test concentration or dose not given here
[3] = test system: Nakaseomyces glabratus; assay: Antifungal activity against Candida glabrata; assay type: functional, organism-based
[4] = test system: Pichia kudriavzevii; assay: Antifungal activity against Candida krusei; assay type: functional, organism-based
[5] = test system: Streptococcus pyogenes; assay: Antibacterial activity against Streptococcus pyogenes ATCC 19615; assay type: functional; further: test concentration or dose not given here
[6] = test system: Staphylococcus aureus; assay: Antibacterial activity against Staphylococcus aureus ATCC 25923; assay type: functional; further: test concentration or dose not given here
[7] = test system: Escherichia coli; assay: Antibacterial activity against Escherichia coli ATCC 25922; assay type: functional; further: test concentration or dose not given here
[8] = test system: Candida albicans; assay: Antifungal activity against Candida albicans; assay type: functional, organism-based
[9] = test system: Staphylococcus aureus; assay: Antibacterial activity against methicillin-resistant Staphylococcus aureus; assay type: functional; further: test concentration or dose not given here
[10] = test system: Candida parapsilosis; assay: Antifungal activity against Candida parapsilosis; assay type: functional, organism-based
[11] = Nakaseomyces glabratus, read-out: IC50
[12] = Lodderomyces parapsilosis, read-out: IC50
[13] = Candida albicans, read-out: IC50
[14] = Candida tropicalis, read-out: IC50
[15] = Pichia kudriavzevii, read-out: IC50

Row | Structure (SMILES) | IC50 [1] | inhibition (INH) [2] [%] | IC50 [3, 11] [µM] | IC50 [4] | inhibition (INH) [5] [%] | inhibition (INH) [6] [%] | inhibition (INH) [7] [%] | IC50 [8] | inhibition (INH) [9] [%] | IC50 [10, 12] [µM] | IC50 [3] | IC50 [10] | IC50 [8, 13] [µM] | IC50 [1, 14] [µM] | IC50 [4, 15] [µM]
1 | CCCCCC/C=C\C#CC#CCCCCC(O)C(=O)OC (stereo not drawn) | Not Active | >75 | 1000 | Not Active | >75 | 50 | 25 | Not Active | >75 | 30 | – | – | – | – | –
2 | CCCC#C/C=C\C#CCCCCCC(O)C(=O)OCCCc1ccccc1 (stereo not drawn) | Not Active | >75 | – | Not Active | >75 | 25 | 50 | Not Active | 25 | – | Not Active | Not Active | – | – | –
3 | CCCCC#CC#C/C=C/CCCCCCC(O)C(=O)OC(C)C (stereo not drawn) | Not Active | >75 | – | Not Active | >75 | 25 | 50 | Not Active | 50 | – | Not Active | Not Active | – | – | –
4 | CCCCCC#CC#C/C=C/CCCCCC(O)C(=O)OC (stereo not drawn) | Not Active | >75 | 500 | Not Active | >75 | 25 | 50 | – | >75 | – | – | Not Active | 1000 | – | –
5 | CCCCC#CC#C/C=C/CCCCCCC(O)C(=O)NCc1ccccc1 (stereo not drawn) | Not Active | >75 | – | Not Active | >75 | 25 | 50 | Not Active | 50 | – | Not Active | Not Active | – | – | –
6 | CCCC/C=C\C#CC#CCCCCCC(O)C(=O)NCC(C)C (stereo not drawn) | Not Active | >75 | – | Not Active | >75 | 50 | 50 | Not Active | >75 | – | Not Active | Not Active | – | – | –
7 | CCCCCC#C/C=C\C#CC[C@@H]1O[C@](C)(OC)[C@@](C)(OC)OC1=O | Not Active | >75 | – | Not Active | >75 | 25 | 50 | Not Active | 25 | – | Not Active | Not Active | – | – | –
8 | CCCC#C/C=C\C#CCCCCC[C@@H]1O[C@](C)(OC)[C@@](C)(OC)OC1=O | Not Active | >75 | – | Not Active | >75 | 25 | 50 | Not Active | 25 | – | Not Active | Not Active | – | – | –
9 | CCCCC#CC#C/C=C/CCCCCC[C@@H]1O[C@](C)(OC)[C@@](C)(OC)OC1=O | Not Active | >75 | – | Not Active | >75 | 25 | 50 | Not Active | 25 | – | Not Active | Not Active | – | – | –
10 | CCCCC/C=C\C#CC#CCCCCC[C@@H]1O[C@](C)(OC)[C@@](C)(OC)OC1=O | Not Active | >75 | – | Not Active | >75 | 50 | 50 | Not Active | 25 | – | Not Active | Not Active | – | – | –
11 | CCCC#CC#CC#CCCCCC[C@@H]1O[C@](C)(OC)[C@@](C)(OC)OC1=O | Not Active | >75 | – | Not Active | >75 | 50 | >75 | Not Active | 25 | – | Not Active | Not Active | – | – | –
12 | O=C(O)C(O)CCCCCCC#C/C=C\C#Cc1ccco1 (stereo not drawn) | Not Active | >75 | – | Not Active | >75 | >75 | >75 | Not Active | 25 | 500 | Not Active | – | – | – | –
13 | CCCCC#C/C=C\C#CCCCCCCC(O)C(=O)O (stereo not drawn) | Not Active | >75 | – | Not Active | >75 | >75 | >75 | Not Active | – | 500 | Not Active | – | – | – | –
14 | CCCCCC#C/C=C\C#CCCCCCC(O)C(=O)O (stereo not drawn) | Not Active | >75 | – | Not Active | >75 | >75 | 50 | Not Active | – | – | Not Active | Not Active | – | – | –
15 | CCCC#C/C=C\C#CCCCCCC(O)C(=O)O (stereo not drawn) | Not Active | >75 | – | Not Active | >75 | >75 | 50 | Not Active | – | – | Not Active | Not Active | – | – | –
16 | CCCCC#CC#C/C=C\CCCCCCC(O)C(=O)O (stereo not drawn) | Not Active | >75 | – | Not Active | – | 25 | – | Not Active | – | – | Not Active | Not Active | – | – | –
17 | CCCCC#CC#C/C=C/CCCCCCC(O)C(=O)O (stereo not drawn) | – | >75 | 500 | – | 25 | 50 | – | – | – | 250 | – | – | 500 | 500 | 500
18 | CCCCCC#CC#C/C=C/CCCCCC(O)C(=O)O (stereo not drawn) | – | >75 | 500 | – | 50 | – | 25 | – | >75 | 2 | – | – | 500 | 500 | 500
19 | CCCCC/C=C\C#CC#CCCCCCC(O)C(=O)O (stereo not drawn) | – | >75 | 500 | – | >75 | >75 | >75 | Not Active | – | 2 | – | – | – | 1000 | 1000
20 | CCCCCC#CC#CC#CCCCCCC(O)C(=O)O (stereo not drawn) | – | >75 | 500 | – | 50 | >75 | >75 | Not Active | – | 2 | – | – | – | 500 | 500
21 | CCCC#CC#CC#CCCCCCC(O)C(=O)O (stereo not drawn) | – | >75 | 500 | – | >75 | >75 | >75 | – | – | 125 | – | – | 500 | 500 | 500
